Laboratory results: ChEMBL document CHEMBL1201862, “PubChem BioAssay data set” (2004)
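96-well plates; 48 h exposure; 5 concentrations. Endpoints by linear interpolation between flanking doses. Not reached: highest tested concentration assigned. GI50 marks 50% less growth.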 Calls of active or inactive are those of the source. Cut-off read from the data, not from the text of the source: active = GI50 up to about 1.1 µM and inactive = higher.

Key:
Test in all cases: NCI-60 cell line screen, 48 h
MDA-N = test system: MDA-N
HT-29 = test system: HT-29
A498 = test system: A498
HOP-92 = test system: HOP-92
Malme-3M = test system: Malme-3M
K562 = test system: K562
MDA-MB-231 = test system: MDA-MB-231
MDA-MB-435 = test system: MDA-MB-435
NCI-H226 = test system: NCI-H226
HCT-116 = test system: HCT-116
SNB-19 = test system: SNB-19
SF-268 = test system: SF-268
U-251 = test system: U-251
TK-10 = test system: TK-10
M14 = test system: M14
A549 = test system: A549
SW-620 = test system: SW-620
NCI-H460 = test system: NCI-H460
KM12 = test system: KM12
NCI/ADR-RES = test system: NCI/ADR-RES
SK-MEL-2 = test system: SK-MEL-2
EKVX = test system: EKVX
RPMI-8226 = test system: RPMI-8226
Hs-578T = test system: Hs-578T
DU-145 = test system: DU-145
PC-3 = test system: PC-3
SF-295 = test system: SF-295
RXF 393 = test system: RXF 393
SF-539 = test system: SF-539
UO-31 = test system: UO-31
MOLT-4 = test system: MOLT-4
SR = test system: SR
CCRF-CEM = test system: CCRF-CEM
OVCAR-3 = test system: OVCAR-3
HCC 2998 = test system: HCC 2998
IGROV-1 = test system: IGROV-1
T47D = test system: T47D
SK-OV-3 = test system: SK-OV-3
NCI-H522 = test system: NCI-H522
COLO 205 = test system: COLO 205
UACC-257 = test system: UACC-257
OVCAR-4 = test system: OVCAR-4
OVCAR-8 = test system: OVCAR-8
SK-MEL-5 = test system: SK-MEL-5
SN12C = test system: SN12C
BT-549 = test system: BT-549
NCI-H23 = test system: NCI-H23
HCT-15 = test system: HCT-15
CAKI-1 = test system: CAKI-1
786-0 = test system: 786-0
ACHN = test system: ACHN
OVCAR-5 = test system: OVCAR-5
HOP-62 = test system: HOP-62
LOX IMVI = test system: LOX IMVI
UACC-62 = test system: UACC-62
SNB-75 = test system: SNB-75
SK-MEL-28 = test system: SK-MEL-28
HL-60 = test system: HL-60
MCF7 = test system: MCF7

## Cc1cc(C)c([S@@](=O)O[C@@H]2[C@H]3OC(C)(C)O[C@H]3O[C@@H]2[C@H]2COC(C)(C)O2)c(C)c1
MDA-N
  GI50: 26.6 µM (inactive)
HT-29
  GI50: 29.7 µM (inactive)
A498
  GI50: 11.8 µM (inactive)
HOP-92
  GI50: 16.6 µM (inactive)
Malme-3M
  GI50: 25.5 µM (inactive)
K562
  GI50: 25.9 µM (inactive)
MDA-MB-231
  GI50: 26.7 µM (inactive)
MDA-MB-435
  GI50: 18.2 µM (inactive)
NCI-H226
  GI50: 24.6 µM (inactive)
HCT-116
  GI50: 24.8 µM (inactive)
SNB-19
  GI50: 40 µM (inactive)
SF-268
  GI50: 31.9 µM (inactive)
U-251
  GI50: 20.2 µM (inactive)
TK-10
  GI50: 25.5 µM (inactive)
M14
  GI50: 25.6 µM (inactive)
A549
  GI50: 29.4 µM (inactive)
SW-620
  GI50: 20 µM (inactive)
NCI-H460
  GI50: 24.8 µM (inactive)
KM12
  GI50: 18.2 µM (inactive)
NCI/ADR-RES
  GI50: 22 µM (inactive)
SK-MEL-2
  GI50: 31.2 µM (inactive)
EKVX
  GI50: 20.4 µM (inactive)
RPMI-8226
  GI50: 17.1 µM (inactive)
Hs-578T
  GI50: 37.2 µM (inactive)
DU-145
  GI50: 29.1 µM (inactive)
PC-3
  GI50: 19.9 µM (inactive)
SF-295
  GI50: 29 µM (inactive)
RXF 393
  GI50: 19.3 µM (inactive)
SF-539
  GI50: 19.5 µM (inactive)
UO-31
  GI50: 17.6 µM (inactive)
MOLT-4
  GI50: 17 µM (inactive)
SR
  GI50: 15.6 µM (inactive)
CCRF-CEM
  GI50: 25.2 µM (inactive)
OVCAR-3
  GI50: 19.7 µM (inactive)
HCC 2998
  GI50: 22.9 µM (inactive)
IGROV-1
  GI50: 4.24 µM (inactive)
T47D
  GI50: 37.5 µM (inactive)
SK-OV-3
  GI50: 36.6 µM (inactive)
NCI-H522
  GI50: 8.65 µM (inactive)
COLO 205
  GI50: 16.3 µM (inactive)
UACC-257
  GI50: 19.5 µM (inactive)
OVCAR-4
  GI50: 16.5 µM (inactive)
OVCAR-8
  GI50: 19.1 µM (inactive)
SK-MEL-5
  GI50: 31.2 µM (inactive)
SN12C
  GI50: 21 µM (inactive)
BT-549
  GI50: 15.1 µM (inactive)
NCI-H23
  GI50: 31.6 µM (inactive)
HCT-15
  GI50: 42.9 µM
CAKI-1
  GI50: 2.16 µM (inactive)
786-0
  GI50: 26.9 µM (inactive)
ACHN
  GI50: 15.3 µM (inactive)
OVCAR-5
  GI50: 29.2 µM (inactive)
HOP-62
  GI50: 21.5 µM (inactive)
LOX IMVI
  GI50: 14 µM (inactive)
UACC-62
  GI50: 22 µM (inactive)
SNB-75
  GI50: 21.8 µM (inactive)
SK-MEL-28
  GI50: 29.1 µM (inactive)
HL-60
  GI50: 4.18 µM (inactive)
MCF7
  GI50: 16.7 µM (inactive)

## COC1C=COC2(C)Oc3c(C)c(O)c4c(c3C2=O)/C(=N/C2CCC(O)OC2C)C=C(NC(=O)/C(C)=C\C(=O)C2CC2C(O)C(C)C(O)C(C)C(OC(C)=O)C1C)C4=O (configuration not stated)
MDA-N
  GI50: 1.88 µM (inactive)
HT-29
  GI50: 1.15 µM (inactive)
A498
  GI50: 3.05 µM (inactive)
HOP-92
  GI50: 2.07 µM (inactive)
Malme-3M
  GI50: 1.69 µM (inactive)
K562
  GI50: 2.22 µM (inactive)
MDA-MB-231
  GI50: 2.07 µM (inactive)
MDA-MB-435
  GI50: 1.79 µM (inactive)
NCI-H226
  GI50: 2.65 µM (inactive)
HCT-116
  GI50: 1.79 µM (inactive)
SNB-19
  GI50: 3.47 µM (inactive)
SF-268
  GI50: 2.97 µM (inactive)
U-251
  GI50: 2.77 µM (inactive)
TK-10
  GI50: 2.9 µM (inactive)
M14
  GI50: 1.97 µM (inactive)
A549
  GI50: 3.48 µM (inactive)
SW-620
  GI50: 1.88 µM (inactive)
NCI-H460
  GI50: 3.26 µM (inactive)
KM12
  GI50: 2.84 µM (inactive)
NCI/ADR-RES
  GI50: 14.2 µM (inactive)
SK-MEL-2
  GI50: 3.48 µM (inactive)
EKVX
  GI50: 3.13 µM (inactive)
RPMI-8226
  GI50: 0.962 µM (active)
Hs-578T
  GI50: 2.41 µM (inactive)
DU-145
  GI50: 2.54 µM (inactive)
PC-3
  GI50: 2.3 µM (inactive)
SF-295
  GI50: 3.72 µM (inactive)
RXF 393
  GI50: 1.86 µM (inactive)
SF-539
  GI50: 2.33 µM (inactive)
UO-31
  GI50: 2.52 µM (inactive)
MOLT-4
  GI50: 1.94 µM (inactive)
SR
  GI50: 1.7 µM (inactive)
CCRF-CEM
  GI50: 0.474 µM (active)
OVCAR-3
  GI50: 0.365 µM (active)
HCC 2998
  GI50: 2.47 µM (inactive)
IGROV-1
  GI50: 2.4 µM (inactive)
T47D
  GI50: 2.69 µM (inactive)
SK-OV-3
  GI50: 7.96 µM (inactive)
NCI-H522
  GI50: 0.946 µM (active)
COLO 205
  GI50: 1.33 µM (inactive)
UACC-257
  GI50: 2.22 µM (inactive)
OVCAR-4
  GI50: 3.09 µM (inactive)
OVCAR-8
  GI50: 1.69 µM (inactive)
SK-MEL-5
  GI50: 1.95 µM (inactive)
SN12C
  GI50: 1.61 µM (inactive)
BT-549
  GI50: 2.44 µM (inactive)
NCI-H23
  GI50: 1.79 µM (inactive)
HCT-15
  GI50: 2.94 µM
CAKI-1
  GI50: 3.24 µM (inactive)
786-0
  GI50: 1.66 µM (inactive)
ACHN
  GI50: 3.13 µM (inactive)
OVCAR-5
  GI50: 2.88 µM (inactive)
HOP-62
  GI50: 3.04 µM (inactive)
LOX IMVI
  GI50: 1.61 µM (inactive)
UACC-62
  GI50: 2.01 µM (inactive)
SNB-75
  GI50: 3.09 µM (inactive)
SK-MEL-28
  GI50: 2.05 µM (inactive)
HL-60
  GI50: 2.14 µM (inactive)
MCF7
  GI50: 1.89 µM (inactive)

## COc1cc(/C=N/n2c(-c3ccccc3)nn(C(C)=O)c2=O)cc(OC)c1OC
MDA-N
  GI50: 0.228 µM (active)
HT-29
  GI50: 0.405 µM (active)
A498
  GI50: 1.59 µM (inactive)
HOP-92
  GI50: > 33.9 µM (inactive)
Malme-3M
  GI50: 5.36 µM (inactive)
K562
  GI50: 0.557 µM (active)
MDA-MB-231
  GI50: 4.61 µM (inactive)
MDA-MB-435
  GI50: 0.19 µM (active)
NCI-H226
  GI50: 18.5 µM (inactive)
HCT-116
  GI50: 0.927 µM (active)
SNB-19
  GI50: 2.56 µM (inactive)
SF-268
  GI50: 6.27 µM (inactive)
U-251
  GI50: 3 µM (inactive)
TK-10
  GI50: 3.85 µM (inactive)
M14
  GI50: 2.14 µM (inactive)
A549
  GI50: 3.2 µM (inactive)
SW-620
  GI50: 0.836 µM (active)
NCI-H460
  GI50: 0.619 µM (active)
KM12
  GI50: 0.521 µM (active)
NCI/ADR-RES
  GI50: 1.25 µM (inactive)
SK-MEL-2
  GI50: 1.72 µM (inactive)
EKVX
  GI50: 8.81 µM (inactive)
RPMI-8226
  GI50: 1.49 µM (inactive)
Hs-578T
  GI50: 3.13 µM (inactive)
DU-145
  GI50: 4.46 µM (inactive)
PC-3
  GI50: 2.07 µM (inactive)
SF-295
  GI50: 1.02 µM (active)
RXF 393
  GI50: 5.26 µM (inactive)
SF-539
  GI50: 1.66 µM (inactive)
UO-31
  GI50: 1.57 µM (inactive)
MOLT-4
  GI50: 0.714 µM (active)
SR
  GI50: 0.0875 µM (active)
CCRF-CEM
  GI50: 2.23 µM (inactive)
OVCAR-3
  GI50: 0.69 µM (active)
HCC 2998
  GI50: 0.748 µM (active)
IGROV-1
  GI50: 2.11 µM (inactive)
T47D
  GI50: 8.02 µM (inactive)
SK-OV-3
  GI50: 4.2 µM (inactive)
NCI-H522
  GI50: 0.818 µM (active)
COLO 205
  GI50: 1.58 µM (inactive)
UACC-257
  GI50: 3.24 µM (inactive)
OVCAR-4
  GI50: 9.91 µM (inactive)
OVCAR-8
  GI50: 3.78 µM (inactive)
SK-MEL-5
  GI50: 0.675 µM (active)
SN12C
  GI50: 5.33 µM (inactive)
BT-549
  GI50: 8.55 µM (inactive)
NCI-H23
  GI50: 4.07 µM (inactive)
HCT-15
  GI50: 0.635 µM
CAKI-1
  GI50: 1.77 µM (inactive)
786-0
  GI50: 4.36 µM (inactive)
ACHN
  GI50: 6 µM (inactive)
OVCAR-5
  GI50: 20 µM (inactive)
HOP-62
  GI50: 12 µM (inactive)
LOX IMVI
  GI50: 2.72 µM (inactive)
UACC-62
  GI50: 1.92 µM (inactive)
SNB-75
  GI50: 3.01 µM (inactive)
SK-MEL-28
  GI50: 7.13 µM (inactive)
HL-60
  GI50: 0.745 µM (active)
MCF7
  GI50: 0.684 µM (active)
